Assay results: patent US10028957B2, “Depot formulations” (DURECT CORPORATION, priority 2007, dated 2018)

Assay: Solvent capacity experiments (solvent added until single phase persists one week)
Assay type: physicochemical
Conditions: fixed PLGA/SAIB ratio, room temperature, weight percent of total final weight
[1] = Example 7, PLGA 4700 Da, 65/35, hexanediol initiated
[2] = Example 8, PLGA 6600 Da, 65/35, dodecanol initiated

| amount of solvent needed for a single phase solution that remained single phase for one week [1] [wt %] | amount of solvent needed for a single phase solution that remained single phase for one week [2] [wt %] | SMILES |
| --- | --- | --- |
| 42.64 | 31.22 | C[S+](C)[O-] [DMSO, dimethylsulfoxide] |
| 26.44 | 19.70 | OCc1ccccc1 [BA, benzyl alcohol] |
